# Tested on: MCF7 complex spheroid growth, % test/control
# Test: Anticancer human tumor MCF7 cell line growth inhibition [Asc];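 further: spheroids exposed to compounds for 7 days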;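 on viability, T/C: 100% = DMSO vehicle control wells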
# Conditions: for IC50: curve of first compound; for viability, T/C: stronger effect = lower value
# Procedure: Multicellular complex tumor spheroid response to apoptosis pathway targeting inhibitors Alrizomadlin, Pelcitoclax, and Dasminapant in combination with a variety of drugs and investigational agents in selected tumor cell lines
# The MDM2 inhibitor alrizomadlin, the Bcl-2/Bcl-xL inhibitor pelcitoclax, and the IAPs inhibitor dasminapant were evaluated both individually and in combination with standard of care and investigational anticancer small molecules within a complex spheroid model of solid tumors. . Complex spheroids include a stromal component modeled by human endothelial cells (HUVEC) and fibroblasts modeled by human mesenchymal stem cells (MSCs). The concentration ranges selected for each drug and investigational agent were based upon clinically achievable concentrations if the clinical Cmax of the agent was known.
# Compounds. The drugs and investigational agents: alrizomadlin (APG-115; NSC831270), pelcitoclax (APG-1252; NSC835773), dasminapant (APG-1387;NSC834197), TAK-243 (NSC785004), copanlisib (NSC809693), olaparib (NSC753686), talazoparib (NSC767125), cobimetinib (NSC 768068), eltanexor (KPT-8602, NSC 794443), abemaciclib (NSC 768073), sotorasib (NSC818433), adagrasib (NSC 831453), MRTX-1133 (NSC 836407), Iadademestat (ORY1001, NSC 806812), and RMC-4630 (NSC839698), were obtained from the NCI Developmental Therapeutics Program Chemical Repository. The FDA-approved anticancer drug set is available from the Developmental Therapeutics Program at https://dtp.cancer.gov/organization/dscb/obtaining/available plates.htm. […] The stock solutions were prepared in dimethyl sulfoxide (DMSO, Sigma-Aldrich, St. Louis, MO, cat. D2650) at 800-fold the tested concentration and stored at -70 degrees C prior to their use. All drugs and investigational agents were tested over a range starting from a high concentration at or near the clinical Cmax and decreasing in half-log increments. If the clinical Cmax for an agent had not been determined, the highest concentration tested was 10 microM.
# The patient-derived cancer (PDC) cell lines include five colon adenocarcinomas: 186277-243-T-J2-PDC, 616215-338-R-J1-PDC, 439559-082-T-J2-PDC, 463943-066-T-J2-PDC, and 519858-162-T-J1-PDC; three pancreatic carcinomas: 323965-272-R-J2-PDC, 521955-158-R6-J3-PDC, and 521955-158-R2-J5-PDC; two uterine sarcomas: 327498-152-R-J2-PDC and 993429-296-R-J1-PDC; two rhabdomyosarcomas: 755483-174-R-J1-PDC and 772245-204-R-J1-PDC; two soft tissue sarcomas: 126254-015-R-J1-PDC and 494315-158-R-J1-PDC; two malignant fibrous histiocytomas: 317291-083-R-J1-PDC and 596521-263-R-J1-PDC; two breast carcinomas: 171881-019-R-J1-PDC and 885512-296-R-J2-PDC; and one ovarian carcinoma: 6556581-035-R-J-PDC were obtained from the NCI PDMR, (https://pdmr.cancer.gov). The established cell lines HSSY-2 synovial sarcoma (RRID:CVCL 8719), SYO-1 synovial sarcoma (RRID:CVCL_7146), MPNST malignant peripheral neural sheath tumor were obtained from the Sloan Kettering Institute. The following established cell lines were purchased from the American Type Culture Collection (ATCC, Manassas, VA), Sor the received from the NCI repository:, PANC-1 pancreatic carcinoma (CRL-1469, RRID:CVCL_0480), OVCAR-5 ovarian carcinoma (RRID:CVCL_1628), OVCAR-8 ovarian carcinoma (RRID:CVCL_1629), , MCF-7 breast carcinoma (CRL-12584, RRID:CVCL_0031), MDA-MB-231 breast carcinoma (CRL-12532, RRID:CVCL_0062), NCI-H1876 small cell lung carcinoma (CRL-5902, RRID:CVCL_1503), NCI-H510A small cell lung carcinoma (HTB-184, RRID:CVCL_1565), NCI-H1417 (CRL-5869, RRID:CVCL_1469), and NCI-H196 small cell lung carcinoma (CRL-5823, RRID:CVCL_1509). Dr. Peter Houghton (Greehey Children's Cancer Research Institute, University of Texas Health Science Center, San Antonio, TX) provided Rh-18 rhabdomyosarcoma (RRID:CVCL_1659). Pooled donor human umbilical vein endothelial cells (HUVEC, Lonza, cat. CC-2519) and human mesenchymal stem cells (hMSC, Lonza, cat. PT-2501) were purchased from Lonza (Walkersville, MD).
# Cell Culture. […]
structure (smiles),measurement,setting,value
NC(=O)C(=Cn1cnc(-c2cc(C(F)(F)F)cc(C(F)(F)F)c2)n1)c1cncnc1 + CCN1C(C(=O)NC23CCC(C(=O)O)(CC2)CC3)C(c2cccc(Cl)c2F)C2(C(=O)Nc3cc(Cl)ccc32)C12CCCCC2,IC50,second compound 0.00949 µM,50 nM
same,IC50,second compound 0.03 µM,15.3 nM
same,IC50,second compound 0.0949 µM,< 0.949 nM
same,IC50,second compound 0.3 µM,< 0.949 nM
same,IC50,second compound 0.949 µM,< 0.949 nM
same,IC50,second compound 3 µM,< 0.949 nM
same,"viability, T/C","second compound 0.00949 µM, first compound 0.000949 µM",109%
same,"viability, T/C","second compound 0.00949 µM, first compound 0.003 µM",107%
same,"viability, T/C","second compound 0.00949 µM, first compound 0.00949 µM",86.7%
same,"viability, T/C","second compound 0.00949 µM, first compound 0.03 µM",73.6%
same,"viability, T/C","second compound 0.00949 µM, first compound 0.0949 µM",23.7%
same,"viability, T/C","second compound 0.00949 µM, first compound 0.3 µM",14.1%
same,"viability, T/C","second compound 0.03 µM, first compound 0.000949 µM",89.2%
same,"viability, T/C","second compound 0.03 µM, first compound 0.003 µM",75.2%
same,"viability, T/C","second compound 0.03 µM, first compound 0.00949 µM",55.6%
same,"viability, T/C","second compound 0.03 µM, first compound 0.03 µM",44.4%
same,"viability, T/C","second compound 0.03 µM, first compound 0.0949 µM",17.8%
same,"viability, T/C","second compound 0.03 µM, first compound 0.3 µM",14.3%
same,"viability, T/C","second compound 0.0949 µM, first compound 0.000949 µM",45.5%
same,"viability, T/C","second compound 0.0949 µM, first compound 0.003 µM",48%
same,"viability, T/C","second compound 0.0949 µM, first compound 0.00949 µM",30.4%
same,"viability, T/C","second compound 0.0949 µM, first compound 0.03 µM",12.4%
same,"viability, T/C","second compound 0.0949 µM, first compound 0.0949 µM",9.36%
same,"viability, T/C","second compound 0.0949 µM, first compound 0.3 µM",12.6%
same,"viability, T/C","second compound 0.3 µM, first compound 0.000949 µM",25.9%
same,"viability, T/C","second compound 0.3 µM, first compound 0.003 µM",22.5%
same,"viability, T/C","second compound 0.3 µM, first compound 0.00949 µM",16%
same,"viability, T/C","second compound 0.3 µM, first compound 0.03 µM",13.9%
same,"viability, T/C","second compound 0.3 µM, first compound 0.0949 µM",11.8%
same,"viability, T/C","second compound 0.3 µM, first compound 0.3 µM",13.4%
same,"viability, T/C","second compound 0.949 µM, first compound 0.000949 µM",14.8%
same,"viability, T/C","second compound 0.949 µM, first compound 0.003 µM",11%
same,"viability, T/C","second compound 0.949 µM, first compound 0.00949 µM",9.57%
same,"viability, T/C","second compound 0.949 µM, first compound 0.03 µM",10.6%
same,"viability, T/C","second compound 0.949 µM, first compound 0.0949 µM",14%
same,"viability, T/C","second compound 0.949 µM, first compound 0.3 µM",14.7%
same,"viability, T/C","second compound 3 µM, first compound 0.000949 µM",13.1%
same,"viability, T/C","second compound 3 µM, first compound 0.003 µM",10.4%
same,"viability, T/C","second compound 3 µM, first compound 0.00949 µM",10.3%
same,"viability, T/C","second compound 3 µM, first compound 0.03 µM",13.8%
same,"viability, T/C","second compound 3 µM, first compound 0.0949 µM",16.1%
same,"viability, T/C","second compound 3 µM, first compound 0.3 µM",20.5%
